Where a name gives a salt, the structure may show the parent alone.
Each compound was assayed against D(1A) dopamine receptor (Bos taurus, UniProt Q95136).
Chain of D(1A) dopamine receptor (Q95136 whole entry): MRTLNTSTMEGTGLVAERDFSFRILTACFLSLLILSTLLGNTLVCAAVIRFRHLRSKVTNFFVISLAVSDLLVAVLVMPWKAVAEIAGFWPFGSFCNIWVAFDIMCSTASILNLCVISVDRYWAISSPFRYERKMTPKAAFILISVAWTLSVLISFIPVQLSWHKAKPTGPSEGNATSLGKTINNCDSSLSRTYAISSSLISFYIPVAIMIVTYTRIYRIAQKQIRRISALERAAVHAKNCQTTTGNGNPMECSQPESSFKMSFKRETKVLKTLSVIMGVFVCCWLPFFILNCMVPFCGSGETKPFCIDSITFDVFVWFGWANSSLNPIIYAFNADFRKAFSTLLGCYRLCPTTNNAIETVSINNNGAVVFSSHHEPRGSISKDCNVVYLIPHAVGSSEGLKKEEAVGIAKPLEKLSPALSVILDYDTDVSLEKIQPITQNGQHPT
In the case of CSc1ccc2c(c1)N(CC[C@@H]1CCCCN1C)c1ccccc1S2 [10-[2-(1-Methyl-piperidin-2-yl)-ethyl]-2-methylsulfanyl-10H-phenothiazine (thioridazine)], the Ki is reported as 75.4 nM.
Compound OCCC1CCN(CC/C=C2/c3ccc(F)cc3Sc3ccc(C(F)(F)F)cc32)CC1 [Lu 12-331] has a Ki of 0.29 nM.
CC[C@@H](CO)NC(=O)[C@@H]1C=C2c3cccc4c3c(cn4C)C[C@H]2N(C)C1 was tested, and the Ki was 1580 nM.
Compound O=C(c1ccc(F)cc1)C1CCN(CCn2c(=O)[nH]c3ccccc3c2=O)CC1 [3-(2-{4-[(4-fluorophenyl)carbonyl]piperidin-1-yl}ethyl)-1,2,3,4-tetrahydroquinazoline-2,4-dione] has a Ki of 395 nM.
With Cc1ccc(N(CC2=NCCN2)c2cccc(O)c2)cc1 [SMR000059054] the Ki was > 10000 nM.
With C=CCN1CC[C@]23c4c5ccc(O)c4O[C@H]2C(=O)CC[C@@]3(O)[C@H]1C5 [[17-(2,3-3H-2-propenyl)]-4,5a-epoxy-3,14-dihydroxymorphinan-6-one] the Ki was > 10000 nM.
CN(C)CCCSc1ccccc1NC(=O)/C=C/c1ccccc1 [CINANSERIN] was tested, and the Ki was 2090 nM.
In the case of CN1[C@@H]2CC[C@H]1CC(OC(=O)[C@H](CO)c1ccccc1)C2 (some centres not stated) [CAS_51-55-8], the Ki is reported as > 10000 nM.
In the case of CCN1CCCC1CNC(=O)c1cc(S(N)(=O)=O)ccc1OC (configuration not stated) [N-[(1-ethylpyrrolidin-2-yl)methyl]-2-methoxy-5-sulfamoylbenzamide], the Ki is reported as > 10000 nM.
In the case of O=c1[nH]c2ccccc2n1CCCN1CCC(n2c(=O)[nH]c3cc(Cl)ccc32)CC1, the Ki is reported as 2040 nM.
With CN1CCN2c3ccccc3Cc3ccccc3[C@H]2C1 [MIANSERIN (+)] the Ki was 318 nM.
With O=C(CCCN1CCC(O)(c2ccc(Cl)cc2)CC1)c1ccc(F)cc1 [4-[4-(4-Chloro-phenyl)-4-hydroxy-piperidin-1-yl]-1-(4-fluoro-phenyl)-butan-1-one;propionate(HCl)] the Ki was 315 nM.

From BindingDB's records for PubMed 2139469 (University of Nebraska, 1990)
